Where a name gives a salt, the structure may show the parent alone.
test system: microfilariae of Dirofilaria immitis; experiment: Dirofilaria immitis, Microfilaria (DiMF) In vitro Assay; type: cell-based; details: 72 h, read-out: DiMF Minimum Effective Dose (MED), approximately 72 hours incubation, microfilariae assessed for survival or paralysis

| Structure (SMILES) | minimal effective concentration |
| --- | --- |
| CC(C)C[C@H]1C(=O)O[C@H](Cc2ccc(Cn3nc(CO)cc3C3CC3)cc2)C(=O)N(C)[C@@H](CC(C)C)C(=O)O[C@H](C)C(=O)N(C)[C@@H](CC(C)C)C(=O)O[C@H](Cc2ccc(Cn3nc(C#N)cc3C#N)cc2)C(=O)N(C)[C@@H](CC(C)C)C(=O)O[C@H](C)C(=O)N1C [Example 1a-10, 1-(4-(((2R,5S,8R,11S,14R,17S,20R,23S)-14-(4-((5-cyclopropyl-3-(hydroxymethyl)-1H-pyrazol-1-yl)methyl)benzyl)-5,11,17,23-tetraisobutyl-4,8,10,16,20,22-hexamethyl-3,6,9,12,15,18,21,24-octaoxo-1,7,13,19-tetraoxa-4,10,16,22-tetraazacyclotetracosan-2-yl)methyl)benzyl)-1H-pyrazole-3,5-dicarbonitrile] | 0.001 to 0.01 µM |

test system: third stage larvae of Haemonchus contortus; experiment: Haemonchus contortus L3 (HcL3) Assay; type: cell-based; details: 96 h, read-out: HcL3 Minimum Effective Dose (MED)

| Structure (SMILES) | minimal effective concentration |
| --- | --- |
| CC(C)C[C@H]1C(=O)O[C@H](Cc2ccc(Cn3nc(CO)cc3C3CC3)cc2)C(=O)N(C)[C@@H](CC(C)C)C(=O)O[C@H](C)C(=O)N(C)[C@@H](CC(C)C)C(=O)O[C@H](Cc2ccc(Cn3nc(C#N)cc3C#N)cc2)C(=O)N(C)[C@@H](CC(C)C)C(=O)O[C@H](C)C(=O)N1C [Example 1a-10, 1-(4-(((2R,5S,8R,11S,14R,17S,20R,23S)-14-(4-((5-cyclopropyl-3-(hydroxymethyl)-1H-pyrazol-1-yl)methyl)benzyl)-5,11,17,23-tetraisobutyl-4,8,10,16,20,22-hexamethyl-3,6,9,12,15,18,21,24-octaoxo-1,7,13,19-tetraoxa-4,10,16,22-tetraazacyclotetracosan-2-yl)methyl)benzyl)-1H-pyrazole-3,5-dicarbonitrile] | 1 to 10 µM |
| CC(C)C[C@H]1C(=O)O[C@H](Cc2ccc(Cn3nccc3C(F)F)cc2)C(=O)N(C)[C@@H](CC(C)C)C(=O)O[C@H](C)C(=O)N(C)[C@@H](CC(C)C)C(=O)O[C@H](Cc2ccc(Cn3nccc3C(F)F)cc2)C(=O)N(C)[C@@H](CC(C)C)C(=O)O[C@H](C)C(=O)N1C [Example 1b-211, (3S,6R,9S,12R,15S,18R,21S,24R)-6,18-bis(4-((5-(difluoromethyl)-1H-pyrazol-1-yl)methyl)benzyl)-3,9,15,21-tetraisobutyl-4,10,12,16,22,24-hexamethyl-1,7,13,19-tetraoxa-4,10,16,22-tetraazacyclotetracosan-2,5,8,11,14,17,20,23-octaone] | ≤ 1 µM |
| CC(C)C[C@H]1C(=O)O[C@H](Cc2ccc(C(C)(C)n3cc([N+](=O)[O-])cn3)cc2)C(=O)N(C)[C@@H](CC(C)C)C(=O)O[C@H](C)C(=O)N(C)[C@@H](CC(C)C)C(=O)O[C@H](Cc2ccc(C(C)(C)n3cc([N+](=O)[O-])cn3)cc2)C(=O)N(C)[C@@H](CC(C)C)C(=O)O[C@H](C)C(=O)N1C [Example 1c-7, (3S,6R,9S,12R,15S,18R,21S,24R)-3,9,15,21-tetraisobutyl-4,6,10,16,18,22-hexamethyl-12,24-bis(4-(2-(4-nitro-1H-pyrazol-1-yl)propan-2-yl)benzyl)-1,7,13,19-tetraoxa-4,10,16,22-tetraazacyclotetracosan-2,5,8,11,14,17,20,23-octaone] | ≤ 1 µM |
| Cc1cnn(C(C)(C)c2ccc(C[C@H]3OC(=O)[C@H](CC(C)C)N(C)C(=O)[C@@H](C)OC(=O)[C@H](CC(C)C)N(C)C(=O)[C@@H](Cc4ccc(C(C)(C)n5cc(C)cn5)cc4)OC(=O)[C@H](CC(C)C)N(C)C(=O)[C@@H](C)OC(=O)[C@H](CC(C)C)N(C)C3=O)cc2)c1 [Example 1c-9, (3S,6R,9S,12R,15S,18R,21S,24R)-3,9,15,21-tetraisobutyl-4,6,10,16,18,22-hexamethyl-12,24-bis(4-(2-(4-methyl-1H-pyrazol-1-yl)propan-2-yl)benzyl)-1,7,13,19-tetraoxa-4,10,16,22-tetraazacyclotetracosan-2,5,8,11,14,17,20,23-octaone] | ≤ 1 µM |
| CC(C)C[C@H]1C(=O)O[C@H](Cc2ccc(C(C)(C)n3cc(Br)cn3)cc2)C(=O)N(C)[C@@H](CC(C)C)C(=O)O[C@H](C)C(=O)N(C)[C@@H](CC(C)C)C(=O)O[C@H](Cc2ccc(C(C)(C)n3cc(Br)cn3)cc2)C(=O)N(C)[C@@H](CC(C)C)C(=O)O[C@H](C)C(=O)N1C [Example 1c-11, (3S,6R,9S,12R,15S,18R,21S,24R)-6,18-bis(4-(2-(4-bromo-1H-pyrazol-1-yl)propan-2-yl)benzyl)-3,9,15,21-tetraisobutyl-4,10,12,16,22,24-hexamethyl-1,7,13,19-tetraoxa-4,10,16,22-tetraazacyclotetracosan-2,5,8,11,14,17,20,23-octaone] | ≤ 1 µM |
| CC(C)C[C@H]1C(=O)O[C@H](Cc2ccc(Cn3cc(O)cn3)cc2)C(=O)N(C)[C@@H](CC(C)C)C(=O)O[C@H](C)C(=O)N(C)[C@@H](CC(C)C)C(=O)O[C@H](Cc2ccccc2)C(=O)N(C)[C@@H](CC(C)C)C(=O)O[C@H](C)C(=O)N1C [Example 2-30, (3S,6R,9S,12R,15S,18R,21S,24R)-6-benzyl-18-(4-((4-hydroxy-1H-pyrazol-1-yl)methyl)benzyl)-3,9,15,21-tetraisobutyl-4,10,12,16,22,24-hexamethyl-1,7,13,19-tetraoxa-4,10,16,22-tetraazacyclotetracosan-2,5,8,11,14,17,20,23-octaone] | 1 to 10 µM |
| CC(C)C[C@H]1C(=O)O[C@H](Cc2ccc(Cn3cc(C(N)=O)cn3)cc2)C(=O)N(C)[C@@H](CC(C)C)C(=O)O[C@H](C)C(=O)N(C)[C@@H](CC(C)C)C(=O)O[C@H](Cc2ccccc2)C(=O)N(C)[C@@H](CC(C)C)C(=O)O[C@H](C)C(=O)N1C [Example 2-53, 1-(4-(((2R,5S,8R,11S,14R,17S,20R,23S)-14-benzyl-5,11,17,23-tetraisobutyl-4,8,10,16,20,22-hexamethyl-3,6,9,12,15,18,21,24-octaoxo-1,7,13,19-tetraoxa-4,10,16,22-tetraazacyclotetracosan-2-yl)methyl)benzyl)-1H-pyrazole-4-carboxamide] | 1 to 10 µM |
| CC(C)C[C@H]1C(=O)O[C@H](Cc2cccc(Cn3cccn3)c2)C(=O)N(C)[C@@H](CC(C)C)C(=O)O[C@H](C)C(=O)N(C)[C@@H](CC(C)C)C(=O)O[C@H](Cc2ccc(Cn3cccn3)cc2)C(=O)N(C)[C@@H](CC(C)C)C(=O)O[C@H](C)C(=O)N1C [Example 3-1, (3S,6R,9S,12R,15S,18R,21S,24R)-3,9,15,21-tetraisobutyl-4,6,10,16,18,22-hexamethyl-12-[[3-(pyrazol-1-ylmethyl)phenyl]methyl]-24-[[4-(pyrazol-1-ylmethyl)phenyl]methyl]-1,7,13,19-tetraoxa-4,10,16, 22-tetrazacyclotetracosane-2,5,8,11,14,17,20,23-octaone] | 1 to 10 µM |
| Cc1cnn(Cc2ccc(C[C@H]3OC(=O)[C@H](CC(C)C)N(C)C(=O)[C@@H](C)OC(=O)[C@H](CC(C)C)N(C)C(=O)[C@@H](Cc4cccc(Cn5cc(C)cn5)c4)OC(=O)[C@H](CC(C)C)N(C)C(=O)[C@@H](C)OC(=O)[C@H](CC(C)C)N(C)C3=O)cc2)c1 [Example 3-2, (3S,6R,9S,12R,15S,18R,21S,24R)-3,9,15,21-tetraisobutyl-4,6,10,16,18,22-hexamethyl-12-[[3-[(4-methylpyrazol-1-yl)methyl]phenyl]methyl]-24-[[4-[(4-methylpyrazol-1-yl)methyl]phenyl]methyl]-1,7,13,19-tetraoxa-4,10,16,22-tetrazacyclotetracosane-2,5,8,11,14,17,20,23-octaone] | 1 to 10 µM |
| CC(C)C[C@H]1C(=O)O[C@H](Cc2cccc(Cn3cc(Br)cn3)c2)C(=O)N(C)[C@@H](CC(C)C)C(=O)O[C@H](C)C(=O)N(C)[C@@H](CC(C)C)C(=O)O[C@H](Cc2ccc(Cn3cc(Br)cn3)cc2)C(=O)N(C)[C@@H](CC(C)C)C(=O)O[C@H](C)C(=O)N1C [Example 3-3, (3S,6R,9S,12R,15S,18R,21S,24R)-6-[[3-[(4-bromopyrazol-1-yl)methyl]phenyl]methyl]-18-[[4-[(4-bromopyrazol-1-yl)methyl]phenyl]methyl]-3,9,15,21-tetraisobutyl-4,10,12,16,22,24-hexamethyl-1,7,13,19-tetraoxa-4,10,16,22-tetrazacyclotetracosane-2,5,8,11,14,17,20,23-octaone] | 1 to 10 µM |
| COc1cnn(Cc2ccc(C[C@H]3OC(=O)[C@H](CC(C)C)N(C)C(=O)[C@@H](C)OC(=O)[C@H](CC(C)C)N(C)C(=O)[C@@H](Cc4cccc(Cn5cc(OC)cn5)c4)OC(=O)[C@H](CC(C)C)N(C)C(=O)[C@@H](C)OC(=O)[C@H](CC(C)C)N(C)C3=O)cc2)c1 [Example 3-27, (3S,6R,9S,12R,15S,18R,21S,24R)-3,9,15,21-tetraisobutyl-6-(3-((4-methoxy-1H-pyrazol-1-yl)methyl)benzyl)-18-(4-((4-methoxy-1H-pyrazol-1-yl)methyl)benzyl)-4,10,12,16,22,24-hexamethyl-1,7,13,19-tetraoxa-4,10,16,22-tetraazacyclotetracosan-2,5,8,11,14,17,20,23-octaone] | 1 to 10 µM |
| CC(C)C[C@H]1C(=O)O[C@H](Cc2ccc(CN3CCOCC3)cc2)C(=O)N(C)[C@@H](CC(C)C)C(=O)O[C@H](C)C(=O)N(C)[C@@H](CC(C)C)C(=O)O[C@H](Cc2ccc(CN3CCOCC3)cc2)C(=O)N(C)[C@@H](CC(C)C)C(=O)O[C@H](C)C(=O)N1C [Example 9-1, (3S,6R,9S,12R,15S,18R,21S,24R)-3,9,15,21-tetraisobutyl-4,6,10,16,18,22-hexamethyl-12,24-bis(4-(morpholinomethyl)benzyl)-1,7,13,19-tetraoxa-4,10,16,22-tetraazacyclotetracosan-2,5,8,11,14,17,20,23-octaone] | 1 to 10 µM |
| CC(C)C[C@H]1C(=O)O[C@H](Cc2ccc(CN3CCNc4ccccc43)cc2)C(=O)N(C)[C@@H](CC(C)C)C(=O)O[C@H](C)C(=O)N(C)[C@@H](CC(C)C)C(=O)O[C@H](Cc2ccc(CN3CCNc4ccccc43)cc2)C(=O)N(C)[C@@H](CC(C)C)C(=O)O[C@H](C)C(=O)N1C [Example 9-69, (3S,6R,9S,12R,15S,18R,21S,24R)-6,18-bis[[4-(3,4-dihydro-2H-quinoxalin-1-ylmethyl)phenyl]methyl]-3,9,15,21-tetraisobutyl-4,10,12,16,22,24-hexamethyl-1,7,13,19-tetraoxa-4,10,16,22-tetrazacyclotetracosane-2,5,8,11,14,17,20,23-octaone dihydrochloride] | 10 to 100 µM |
| CC(C)C[C@H]1C(=O)O[C@H](Cc2ccc(CN3CCOCC3)cc2)C(=O)N(C)[C@@H](CC(C)C)C(=O)O[C@H](C)C(=O)N(C)[C@@H](CC(C)C)C(=O)O[C@H](Cc2ccccc2)C(=O)N(C)[C@@H](CC(C)C)C(=O)O[C@H](C)C(=O)N1C [Example 10-6, (3S,6R,9S,12R,15S,18R,21S,24R)-6-benzyl-3,9,15,21-tetraisobutyl-4,10,12,16,22,24-hexamethyl-18-(4-(morpholinomethyl)benzyl)-1,7,13,19-tetraoxa-4,10,16,22-tetraazacyclotetracosan-2,5,8,11,14,17,20,23-octaone] | 1 to 10 µM |
